Data published in patent US20220062240A1, “METHODS OF TREATING CANCER USING A CLK INHIBITOR” (BioSplice Therapeutics, Inc., priority 2018, published 2022).
Read-outs that look alike come from different tables or passages of the source.

Experiments:
[1] = system: pancreatic cancer (8 cell lines); experiment: CellTiter-Glo Viability Assay, pancreatic cancer; format: cell-based; details: Homo sapiens, inhibition of cancer cell proliferation
[2] = system: ovarian cancer (4 cell lines); experiment: CellTiter-Glo Viability Assay, ovarian cancer; format: cell-based; details: Homo sapiens, inhibition of cancer cell proliferation
[3] = system: prostate cancer (5 cell lines); experiment: CellTiter-Glo Viability Assay, prostate cancer; format: cell-based; details: Homo sapiens
[4] = system: haematopoietic & lymphoid tumors (13 cell lines); experiment: CellTiter-Glo Viability Assay, haematopoietic & lymphoid tumors; format: cell-based; details: Homo sapiens, inhibition of cancer cell proliferation
[5] = molecular target: T1, CLK2 (Homo sapiens, UniProt P49760); experiment: CLK2 kinase activity assay (Z-lyte, Ser/Thr 6 peptide); format: biochemical; details: recombinant CLK2 kinase, ATP 60 μM; read-out: EC50
T1 construct: purchased Thermo Fisher (Life Technologies), Z'-LYTE Kinase Assay Kits
T1 sequence (P49760 whole entry): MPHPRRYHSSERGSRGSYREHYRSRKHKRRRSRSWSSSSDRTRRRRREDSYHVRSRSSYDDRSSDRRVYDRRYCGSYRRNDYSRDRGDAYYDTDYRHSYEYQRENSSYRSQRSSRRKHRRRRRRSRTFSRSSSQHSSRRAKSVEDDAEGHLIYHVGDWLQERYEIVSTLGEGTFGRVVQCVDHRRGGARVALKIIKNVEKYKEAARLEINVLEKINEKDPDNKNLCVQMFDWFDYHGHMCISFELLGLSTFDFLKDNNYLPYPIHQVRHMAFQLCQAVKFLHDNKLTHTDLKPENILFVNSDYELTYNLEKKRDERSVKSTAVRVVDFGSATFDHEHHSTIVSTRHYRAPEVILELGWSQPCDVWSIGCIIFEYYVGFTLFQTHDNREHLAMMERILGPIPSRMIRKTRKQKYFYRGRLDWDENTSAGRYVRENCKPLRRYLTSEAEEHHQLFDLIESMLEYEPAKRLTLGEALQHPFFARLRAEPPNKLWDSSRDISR
Experimental: All reactions were performed in duplicate.

[6] = system: lung cancer (4 cell lines); experiment: CellTiter-Glo Viability Assay, lung cancer; format: cell-based; details: Homo sapiens, inhibition of cancer cell proliferation
[7] = molecular target: CLK3 (Homo sapiens, UniProt P49761); experiment: CLK3 kinase activity assay (Z-lyte, Ser/Thr 18 peptide)
Chain of CLK3 (P49761 whole entry): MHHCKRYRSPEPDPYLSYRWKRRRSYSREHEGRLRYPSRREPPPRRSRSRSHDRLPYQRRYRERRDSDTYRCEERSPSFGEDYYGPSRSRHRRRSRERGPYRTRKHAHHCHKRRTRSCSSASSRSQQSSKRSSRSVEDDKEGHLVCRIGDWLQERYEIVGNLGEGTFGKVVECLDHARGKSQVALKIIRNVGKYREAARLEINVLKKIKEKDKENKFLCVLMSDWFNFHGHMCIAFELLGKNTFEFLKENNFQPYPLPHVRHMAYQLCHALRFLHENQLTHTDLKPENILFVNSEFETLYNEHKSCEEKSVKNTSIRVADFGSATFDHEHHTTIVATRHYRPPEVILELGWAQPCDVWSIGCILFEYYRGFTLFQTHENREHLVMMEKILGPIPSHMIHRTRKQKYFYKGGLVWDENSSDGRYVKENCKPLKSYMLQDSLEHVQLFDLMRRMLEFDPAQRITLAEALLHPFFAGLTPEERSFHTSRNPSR

[8] = system: all 50 cell lines; experiment: CellTiter-Glo Viability Assay, average across all cell lines; format: cell-based; details: Homo sapiens; across all 50 cell lines; read-out: average EC50 for inhibition of cancer cell proliferation
Method in brief: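 Cancer cell lines of several tumour types plated at 300-3,000 cells/well and exposed to compound in duplicate for four days at 37° C, 5% CO2, with DMSO-treated controls. Viability read by CellTiter-Glo luminescence (ATP content); EC50 derived from dose-response curves.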

[9] = system: liver cancer (3 cell lines); experiment: CellTiter-Glo Viability Assay, liver cancer; format: cell-based; details: Homo sapiens, inhibition of cancer cell proliferation
[10] = system: colorectal cancer (6 cell lines); experiment: CellTiter-Glo Viability Assay, colorectal cancer; format: cell-based; details: Homo sapiens, inhibition of cancer cell proliferation
[11] = system: DU4475; experiment: CellTiter-Glo Viability Assay, breast cancer; format: cell-based; details: Homo sapiens, DU-4475, 96 h; DU4475, breast cancer, four days; read-out: EC50
[12] = system: HCC1599; experiment: CellTiter-Glo Viability Assay, breast cancer; format: cell-based; details: Homo sapiens, 96 h; HCC1599, breast cancer, four days; read-out: EC50
[13] = system: ZR-75-1; experiment: CellTiter-Glo Viability Assay, breast cancer; format: cell-based; details: Homo sapiens, 96 h; ZR-75-1, breast cancer, four days; read-out: EC50
[14] = system: BT-549; experiment: CellTiter-Glo Viability Assay, breast cancer; format: cell-based; details: Homo sapiens, 96 h; BT-549, breast cancer, four days; read-out: EC50
[15] = system: CAMA1; experiment: CellTiter-Glo Viability Assay, breast cancer; format: cell-based; details: Homo sapiens, CAMA-1, 96 h; CAMA1, breast cancer, four days; read-out: EC50
[16] = system: MDA-MB-231-Luc; experiment: CellTiter-Glo Viability Assay, breast cancer; format: cell-based; details: Homo sapiens, 96 h; MDA-MB-231-Luc, breast cancer, four days; read-out: EC50
[17] = system: T47D; experiment: CellTiter-Glo Viability Assay, breast cancer; format: cell-based; details: Homo sapiens, 96 h, breast cancer, four days, read-out: EC50
[18] = system: MCF7; experiment: CellTiter-Glo Viability Assay, breast cancer; format: cell-based; details: Homo sapiens, 96 h; MCF7, breast cancer, four days; read-out: EC50
[19] = BXPC-3, BxPC3 cell line, read-out: Pancreatic cancer, EC50 BxPC3
[20] = CAPAN-1, Capan1 cell line, read-out: Pancreatic cancer, EC50 Capan1
[21] = Capan-2, Capan2 cell line, read-out: Pancreatic cancer, EC50 Capan2
[22] = MIA PaCa-2 cell line, read-out: Pancreatic cancer, EC50 MIA PaCa-2
[23] = PANC 05.04 cell line, read-out: Pancreatic cancer, EC50 PANC 05.04
[24] = PANC-1 cell line, read-out: Pancreatic cancer, EC50 PANC-1
[25] = UPAFII cell line, read-out: Pancreatic cancer, EC50 UPAFII
[26] = PA-1, PA1 cell line, read-out: Ovarian cancer, EC50 (μM) PA1
[27] = TOV112D, TOV-112D cell line, read-out: Ovarian cancer, EC50 (μM) TOV-112D
[28] = OV-90 cell line, read-out: Ovarian cancer, EC50 (μM) OV-90
[29] = OVCAR-3 cell line, read-out: Ovarian cancer, EC50 (μM) OVCAR-3
[30] = DU-145, read-out: Prostate cancer EC50 Du-145
[31] = PC-3, PC3 cell line, inhibition of cancer cell proliferation, read-out: Prostate cancer EC50 PC3
[32] = 22Rv1 cell line, inhibition of cancer cell proliferation, read-out: Prostate cancer EC50 22Rv1
[33] = LNCap clone FGC cell line, inhibition of cancer cell proliferation, read-out: Prostate cancer EC50 LNCap clone FGC
[34] = VCaP (Sigma) cell line, inhibition of cancer cell proliferation, read-out: Prostate cancer EC50 VCaP (Sigma)
[35] = DND41, DND-41 cell line, read-out: Haematopoietic & Lymphoid tumors, EC50 (μM) DND-41
[36] = MV4-11, MV-4-11 cell line, read-out: Haematopoietic & Lymphoid tumors, EC50 (μM) MV-4-11
[37] = Rec1, REC-1 cell line, read-out: Haematopoietic & Lymphoid tumors, EC50 (μM) REC-1
[38] = SU-DHL-4, SUDHL4 cell line, read-out: Haematopoietic & Lymphoid tumors, EC50 (μM) SUDHL4
[39] = HL-60 cell line, read-out: Haematopoietic & Lymphoid tumors, EC50 (μM) HL-60
[40] = JM1 cell line, read-out: Haematopoietic & Lymphoid tumors, EC50 (μM) JM1
[41] = JURKAT, Clone E6-1 cell line, read-out: Haematopoietic & Lymphoid tumors, EC50 (μM) JURKAT, Clone E6-1
[42] = JeKo-1 cell line, read-out: Haematopoietic & Lymphoid tumors, EC50 (μM) JeKo-1
[43] = KASUMI-1 cell line, read-out: Haematopoietic & Lymphoid tumors, EC50 (μM) KASUMI-1
[44] = Loucy cell line, read-out: Haematopoietic & Lymphoid tumors, EC50 (μM) Loucy
[45] = MOLT-4 cell line, read-out: Haematopoietic & Lymphoid tumors, EC50 (μM) MOLT-4
[46] = TF-1 cell line, read-out: Haematopoietic & Lymphoid tumors, EC50 (μM) TF-1
[47] = TOLEDO cell line, read-out: Haematopoietic & Lymphoid tumors, EC50 (μM) TOLEDO
[48] = A-427, A427 cell line, read-out: Lung cancer, EC50 (μM) A427
[49] = HCC78, HCC-78 cell line, read-out: Lung cancer, EC50 (μM) HCC-78
[50] = NCI-H460 cell line, read-out: Lung cancer, EC50 (μM) NCI-H460
[51] = NCI-H522 cell line, read-out: Lung cancer, EC50 (μM) NCI-H522
[52] = SNU-398, SNU398 cell line, read-out: Liver cancer, EC50 SNU398
[53] = HEPG2 cell line, read-out: Liver cancer, EC50 HEPG2
[54] = PLC/PRF/5 cell line, read-out: Liver cancer, EC50 PLC/PRF/5
[55] = HCT-116, HCT116 cell line, read-out: Colorectal cancer, EC50 (μM) HCT116
[56] = HT-29, HT29 cell line, read-out: Colorectal cancer, EC50 (μM) HT29
[57] = SW-620, SW620 cell line, read-out: Colorectal cancer, EC50 (μM) SW620
[58] = DLD-1 cell line, read-out: Colorectal cancer, EC50 (μM) DLD-1
[59] = SW48 cell line, read-out: Colorectal cancer, EC50 (μM) SW48
[60] = SW480 cell line, read-out: Colorectal cancer, EC50 (μM) SW480

Structure (SMILES): c1cncc(-c2ccc3[nH]nc(-c4cc5c(-c6cccnc6)cncc5[nH]4)c3c2)c1 [Compound 48]
- EC50 [1, 19]: 3300 nM
- EC50 [1, 20]: 2760 nM
- EC50 [1, 21]: > 3500 nM
- EC50 [1, 22]: 1000 nM
- EC50 [1, 23]: > 3500 nM
- EC50 [1, 24]: > 3500 nM
- EC50 [1, 25]: 1800 nM
- EC50 [2, 26]: 1.29 µM
- EC50 [2, 27]: 1.68 µM
- EC50 [2, 28]: > 3.5 µM
- EC50 [2, 29]: 0.89 µM
- EC50 [3, 30]: 1870 nM
- EC50 [3, 31]: 1030 nM
- EC50 [3, 32]: 1140 nM
- EC50 [3, 33]: > 3500 nM
- EC50 [3, 34]: 2000 nM
- EC50 [4, 35]: 0.894 µM
- EC50 [4, 36]: 0.147 µM
- EC50 [4, 37]: 2.31 µM
- EC50 [4, 38]: 1.23 µM
- EC50 [4, 39]: 3.06 µM
- EC50 [4, 40]: 0.409 µM
- EC50 [4, 41]: 1.77 µM
- EC50 [4, 42]: 0.455 µM
- EC50 [4, 43]: 2.01 µM
- EC50 [4, 44]: 0.952 µM
- EC50 [4, 45]: 2.52 µM
- EC50 [4, 46]: 2.92 µM
- EC50 [4, 47]: 0.317 µM
- EC50 [5]: 0.1 nM
- EC50 [6, 48]: 0.875 µM
- EC50 [6, 49]: > 3.5 µM
- EC50 [6, 50]: > 3.5 µM
- EC50 [6, 51]: 1.17 µM
- EC50 [7]: 2.5 nM
- EC50 [8]: 3220 nM
- EC50 [9, 52]: 381 nM
- EC50 [9, 53]: 2200 nM
- EC50 [9, 54]: > 3500 nM
- EC50 [10, 55]: 1.17 µM
- EC50 [10, 56]: 1.54 µM
- EC50 [10, 57]: 0.886 µM
- EC50 [10, 58]: 2.21 µM
- EC50 [10, 59]: 0.63 µM
- EC50 [10, 60]: 1.57 µM
- EC50 [11]: 1000 nM
- EC50 [12]: 146 nM
- EC50 [13]: 3410 nM
- EC50 [14]: 1310 nM
- EC50 [15]: 1910 nM
- EC50 [16]: 2860 nM
- EC50 [17]: > 3500 nM
- EC50 [18]: > 3500 nM

Structure (SMILES): CC(C)CC(=O)Nc1cncc(-c2ccc3[nH]nc(-c4cc5c(N6CCCCC6)cncc5[nH]4)c3c2)c1 [Compound 50]
- EC50 [1, 19]: 3410 nM
- EC50 [1, 20]: 3510 nM
- EC50 [1, 21]: 2210 nM
- EC50 [1, 22]: 381 nM
- EC50 [1, 23]: 2920 nM
- EC50 [1, 24]: > 10000 nM
- EC50 [1, 25]: 1720 nM
- EC50 [2, 26]: 1.09 µM
- EC50 [2, 27]: 0.419 µM
- EC50 [2, 28]: 1.34 µM
- EC50 [2, 29]: 0.67 µM
- EC50 [3, 30]: 955 nM
- EC50 [3, 31]: 759 nM
- EC50 [3, 32]: 833 nM
- EC50 [3, 33]: 1640 nM
- EC50 [3, 34]: 1790 nM
- EC50 [4, 35]: 0.258 µM
- EC50 [4, 36]: 0.122 µM
- EC50 [4, 37]: 3.62 µM
- EC50 [4, 38]: 0.419 µM
- EC50 [4, 39]: 0.767 µM
- EC50 [4, 40]: 0.256 µM
- EC50 [4, 41]: 1.07 µM
- EC50 [4, 42]: 0.159 µM
- EC50 [4, 43]: 1.27 µM
- EC50 [4, 44]: 0.174 µM
- EC50 [4, 45]: 1.29 µM
- EC50 [4, 46]: 2.73 µM
- EC50 [4, 47]: 0.441 µM
- EC50 [5]: 3.8 nM
- EC50 [6, 48]: 0.489 µM
- EC50 [6, 49]: 0.92 µM
- EC50 [6, 50]: 9.68 µM
- EC50 [6, 51]: 0.31 µM
- EC50 [7]: 35.1 nM
- EC50 [8]: 1590 nM
- EC50 [9, 52]: 91 nM
- EC50 [9, 53]: 1460 nM
- EC50 [9, 54]: 3540 nM
- EC50 [10, 55]: 0.522 µM
- EC50 [10, 56]: 2.8 µM
- EC50 [10, 57]: 0.239 µM
- EC50 [10, 58]: 1.17 µM
- EC50 [10, 59]: 0.312 µM
- EC50 [10, 60]: 0.274 µM
- EC50 [11]: 750 nM
- EC50 [12]: 828 nM
- EC50 [13]: 1110 nM
- EC50 [14]: 1530 nM
- EC50 [15]: 919 nM
- EC50 [16]: 1200 nM
- EC50 [17]: 1740 nM
- EC50 [18]: 3520 nM
